Experimental data taken from ChEMBL document CHEMBL1126639, “Centrally acting serotonergic and dopaminergic agents. 2. Synthesis and structure-activity relationships of 2,3,3a,4,9,9a-hexahydro-1H-benz[f]indole derivatives” (J Med Chem, 1993).

Tests used:
Mus musculus [1] = assay: (§1) Time of effect in the face-to-face behavioral assay in the mouse when a dose of […] is administered perorally; assay type: functional
Mus musculus [2] = assay: Time of effect in the isolation-induced aggression behavioral assay in the mouse when a dose of 36 micro mol/kg is administered intraperitoneally; assay type: functional
Mus musculus [3] = assay: Time of effect in the face-to-face behavioral assay in the mouse when a dose of 0.4 umol/kg is administered perorally; assay type: functional
Mus musculus [4] = assay: Time of effect in the isolation-induced aggression behavioral assay in the mouse when a dose of 11 micro mol/kg is administered perorally; assay type: functional
Rattus norvegicus [5] = assay: Effect on the synthesis rates of dopamine (DOPA accumulation) in the rat ventral limbic brain region at 10.7 uM/kg.; assay type: functional, Limbic system
Rattus norvegicus [6] = assay: Inhibition of firing rates of dopaminergic neurons in the substantia nigra pars compacta by intravenous injection in rats; assay type: functional
Mus musculus [7] = assay: Time of effect in the isolation-induced aggression behavioral assay in the mouse when a dose of 0.0 micro mol/kg is administered perorally; assay type: functional
Rattus norvegicus [8] = assay: Effect on the synthesis rates of serotonin (5-HTP accumulation) in the rat ventral limbic brain region 10.7 umol/kg.; assay type: functional, Limbic system
Mus musculus [9] = assay: Time of effect in the isolation-induced aggression behavioral assay in the mouse when a dose of 1.1 micro mol/kg is administered perorally; assay type: functional
Mus musculus [10] = assay: Time of effect in the isolation-induced aggression behavioral assay in the mouse when a dose of 36 micro mol/kg is administered perorally; assay type: functional
Mus musculus [11] = assay: Time of effect in the isolation-induced aggression behavioral assay in the mouse when a dose of 0.0 umol/kg is administered intraperitoneally; assay type: functional
Mus musculus [12] = assay: Maximum decrease in temperature when compound is administered subcutaneously; assay type: functional
D(2) dopamine receptor = D(2) dopamine receptor (Rattus norvegicus, UniProt P61169); assay: Inhibitory concentration against [3H]raclopride-labeled dopamine receptor D2 in rat striatum; assay type: tissue-based
Sequence of D(2) dopamine receptor (P61169 whole entry): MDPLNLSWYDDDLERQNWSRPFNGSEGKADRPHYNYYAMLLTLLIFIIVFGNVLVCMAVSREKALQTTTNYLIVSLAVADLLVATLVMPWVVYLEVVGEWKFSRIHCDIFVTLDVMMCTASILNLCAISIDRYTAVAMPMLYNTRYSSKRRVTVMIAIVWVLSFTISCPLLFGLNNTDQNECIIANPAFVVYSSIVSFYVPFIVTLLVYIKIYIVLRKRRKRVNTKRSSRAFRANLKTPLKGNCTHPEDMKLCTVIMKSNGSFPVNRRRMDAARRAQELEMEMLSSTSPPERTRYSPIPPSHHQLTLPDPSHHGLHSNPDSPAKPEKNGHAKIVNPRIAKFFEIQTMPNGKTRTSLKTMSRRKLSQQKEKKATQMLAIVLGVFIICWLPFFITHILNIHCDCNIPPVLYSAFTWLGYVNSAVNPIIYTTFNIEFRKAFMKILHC

Mus musculus [13] = assay: Effective dose on hypothermia in mouse when administered through peroral route; assay type: functional
Mus musculus [14] = assay: Effective dose on hypothermia in mouse when administered subcutaneously; assay type: functional
Mus musculus [15] = assay: as §1; assay type: functional; remark: listed apart in the source
Mus musculus [16] = assay: Time of effect in the isolation-induced aggression behavioral assay in the mouse when a dose of 3.6 micro mol/kg is administered perorally; assay type: functional
Mus musculus [17] = assay: Maximum decrease in temperature when compound is administered through peroral route; assay type: functional
Rattus norvegicus [18] = assay: Inhibition of firing rates of serotonergic neurons in the dorsal raphe nucleus by intravenous injection in rats; assay type: functional
Mus musculus [19] = assay: Time of effect in the isolation-induced aggression behavioral assay in the mouse when a dose of 11 umol/kg is administered intraperitoneally; assay type: functional
Mus musculus [20] = assay: Ability to stimulate dopaminergic systems by effect on locomotor activity in reserpinized mice when a dose of 2.7 micro mol/kg is administered intraperitoneally; assay type: functional
Mus musculus [21] = assay: Antagonism of apomorphine for 0-10 minutes in reserpinized mice when a dose of 2.7 micro mol/kg is administered intraperitoneally; assay type: functional
Mus musculus [22] = assay: Antagonism of apomorphine in reserpinized mice when a dose of 0.3 micro mol/kg is administered intraperitoneally; assay type: functional
Mus musculus [23] = assay: Antagonism of apomorphine for 10-20 minutes in reserpinized mice when a dose of 0.3 micro mol/kg is administered intraperitoneally; assay type: functional
Rattus norvegicus [24] = assay: Effect on the synthesis rates of dopamine in the rat ventral limbic brain region at 2.7 micro mol/kg.; assay type: functional, Limbic system
Rattus norvegicus [25] = assay: Effect on the synthesis rates of serotonin in the rat ventral limbic brain region 2.7 micro mol/kg.; assay type: functional, Limbic system
Mus musculus [26] = assay: Antagonism of apomorphine for 10-20 minutes in reserpinized mice when a dose of 2.7 micro mol/kg is administered intraperitoneally; assay type: functional
Mus musculus [27] = assay: Ability to stimulate dopaminergic systems by effect on locomotor activity in reserpinized mice when a dose of 0.3 micro mol/kg is administered intraperitoneally; assay type: functional
Mus musculus [28] = assay: Antagonism of apomorphine in reserpinized mice when a dose of 2.7 micro mol/kg is administered intraperitoneally; assay type: functional
Mus musculus [29] = assay: Antagonism of apomorphine for 0-10 minutes in reserpinized mice when a dose of 0.3 micro mol/kg is administered intraperitoneally; assay type: functional
Mus musculus [30] = assay: Ability to stimulate dopaminergic systems by effect on locomotor activity in reserpinized mice when a dose of 33 micro mol/kg is administered intraperitoneally; assay type: functional
Mus musculus [31] = assay: Antagonism of apomorphine in reserpinized mice when a dose of 33 micro mol/kg is administered intraperitoneally; assay type: functional
Mus musculus [32] = assay: Antagonism of apomorphine for 0-10 minutes in reserpinized mice when a dose of 3.3 micro mol/kg is administered intraperitoneally; assay type: functional
Mus musculus [33] = assay: Antagonism of apomorphine for 10-20 minutes in reserpinized mice when a dose of 33 micro mol/kg is administered intraperitoneally; assay type: functional
Mus musculus [34] = assay: Antagonism of apomorphine for 0-10 minutes in reserpinized mice when a dose of 33 micro mol/kg is administered intraperitoneally; assay type: functional
Mus musculus [35] = assay: Antagonism of apomorphine in reserpinized mice when a dose of 3.3 micro mol/kg is administered intraperitoneally; assay type: functional
Mus musculus [36] = assay: Antagonism of apomorphine for 10-20 minutes in reserpinized mice when a dose of 3.3 micro mol/kg is administered intraperitoneally; assay type: functional
Mus musculus [37] = assay: Ability to stimulate dopaminergic systems by effect on locomotor activity in reserpinized mice when a dose of 3.3 micro mol/kg is administered intraperitoneally; assay type: functional

Q: What does the source list for C=CCN1CC[C@@H]2Cc3c(cccc3OC)C[C@H]21?
A: Time (Mus musculus [1]): 1 s; Time (Mus musculus [2]): 600 s; Time (Mus musculus [3]): 1.7 s; Time (Mus musculus [4]): 257 s; Control (Rattus norvegicus [5]): -37%; ED50 (Rattus norvegicus [6]): 0.05 µmol/kg; Time (Mus musculus [7]): 5 s; Control (Rattus norvegicus [8]): -41%; Time (Mus musculus [9]): 109 s; Time (Mus musculus [10]): 397 s; Time (Mus musculus [11]): 5 s; Max temperature decrease (Mus musculus [12]): 4.5; IC50 (D(2) dopamine receptor): > 1000 nM; ED50 (Mus musculus [13]): 1.1 µM/kg; ED50 (Mus musculus [14]): 0.6 µM/kg; Time (Mus musculus [15]): 1.5 s; Time (Mus musculus [16]): 198 s; Max temperature decrease (Mus musculus [17]): 5.6; ED50 (Rattus norvegicus [18]): 0.08 µM/kg; Time (Mus musculus [19]): 570 s

Q: Which results are given for O=C(CCCN1CCC(O)(c2ccc(Cl)cc2)CC1)c1ccc(F)cc1 [HALOPERIDOL]?
A: Locomotor activity (Mus musculus [20]): 1; Locomotor activity (Mus musculus [21]): 72; Locomotor activity (Mus musculus [22]): 58; Locomotor activity (Mus musculus [23]): 71; ED50 (Rattus norvegicus [6]): 0.018 µmol/kg; Control (Rattus norvegicus [24]): 144%; Control (Rattus norvegicus [25]): -6.6%; Locomotor activity (Mus musculus [26]): 28; Locomotor activity (Mus musculus [27]): 9; Locomotor activity (Mus musculus [28]): 10; ED50 (Rattus norvegicus [18]; Rattus norvegicus, Dorsal raphe nucleus, iv, read-out: ED50): 0.019 µmol/kg; Locomotor activity (Mus musculus [29]): 94

Q: CCCN1CCCC(c2cccc(O)c2)C1 (single isomer, unassigned; (-)) was tested. Which Locomotor activity (Mus musculus [30]) did it give?
A: 13

Q: What about the Locomotor activity (Mus musculus [31]) of the same compound?
A: 41

Q: And the Locomotor activity (Mus musculus [22])?
A: 118

Q: And the Locomotor activity (Mus musculus [23])?
A: 106

Q: What about the Locomotor activity (Mus musculus [32]) of the same compound?
A: 91

Q: What about the Locomotor activity (Mus musculus [33]) of the same compound?
A: 58

Q: What about the Locomotor activity (Mus musculus [34]) of the same compound?
A: 59

Q: And the Locomotor activity (Mus musculus [35])?
A: 106

Q: What about the Locomotor activity (Mus musculus [36]) of the same compound?
A: 83

Q: What about the Locomotor activity (Mus musculus [37]) of the same compound?
A: 8

Q: And the Locomotor activity (Mus musculus [27])?
A: 31

Q: And the Locomotor activity (Mus musculus [29])?
A: 127
